Assay [1] deals with Vesicular-stomatitis Indiana. In words: Plaque reduction test on primary HEZ. In kind it is cell-based. (In general: Plaques are areas of infected cells; plaque reduction assays count them against a control.)
The subject of assay [2] is SE-spezifischen IgM- und IgG-PBZ. In words: Haemolysis plaque test (immunostimulation). Format: in vivo, Maus (Inzuchtstamm CBA). As to conditions: 2,0 mg/kg daily over 5 days, peroral, p < 0,001. The source says: Der Nachweis immunstimulierender Effekte wurde weiterhin an der Maus (Inzuchtstamm CBA) und u. a. mit Hilfe folgender Nachweismethoden geführt: • Plaque-Test zum Nachweis von SE-spezifischen IgM- und IgG-PBZ, • Rosettentest.
Aus den Werten wird deutlich, daß die Verbindungen der allgemeinen Formel I einen gut nachweisbaren Effekt auf die Effektor-T-Lymphozyten-abhängige verzögerte Uberempfindlichkeit haben. Kontaktdermatitis-Werte ab 120 (≙ 20 % Steigerung gegenüber der Kontrolle) bzw. unter 80 werden als Nachweis eines stimulatorischen bzw. suppressorischen Effektes angesehen. Antikörpertiter-Differenzen von >+1 bzw. <-1 verdeutlichen den stimulatorischen bzw. suppressorischen Effekt der Substanzen auf die humorale Immunantwort. 2. Untersuchungen zur immunstimulierenden Wirkung • 2.1 Plaque-Test zum Nachweis von SE-spezifischen IgM- und IgG-PBZ Zur Prüfung immunstimulierender Effekte wurde u. a. auch der Einfluß von Verbindungen der allgemeinen Formel I auf die humorale Immunantwort an Mäusen des Inzuchtstammes CBA und mittels Hämolyse-Plaque-Test (HPT) untersucht. Diese Technik erlaubt die quantitative und getrennte Erfassung IgM- und IgG-Antikörper produzierender Zellen (= Plaque bildende Zellen; PBZ). […]

For assay [3], the system named is Herpes simplex Typ 1. In words: One-step replication cycle on chick embryo cells. As to conditions: Beispielreihe 2, HEZ. In kind it is cell-based.
The subject of assay [4] is Influenza A/WSN. In words: Plaque reduction test on primary HEZ. The note with it: mean of two experiments.
In assay [5] the test system is Influenza A/WSN. In words: One-step replication cycle on permanent human kidney cell line.
The mark [6] stands for this setting: 250 µmol/l, mean of three experiments.

For `O=c1[nH]c2ccccc2c(=O)n1CCS` [Beispiel 1, 3-(2-Mercaptoethyl)-chinazolin-2,4(1H,3H)-dion], the “Plaquereduktion in % zur Viruskontrolle auf primären HEZ” value is reported as 15% in assay [1] (125 µmol/l, mean of two experiments); 45 ^x % in assay [1] (250 µmol/l, footnote x = keine signifikante Wirkung); 0% in assay [1] (62,5 µmol/l, mean of two experiments, 62.5 µM); 98% in assay [4] (125 µmol/l); 100% in assay [4] (250 µmol/l); 85% in assay [4] (31,25 µmol/l, 31.25 µM). Further, the “Plaquereduktion in % zur Viruskontrolle auf primären HEZ” value in assay [4] (62,5 µmol/l, 62.5 µM) was 92%. Further, the “IgG-PBZ (Kontrolle: 100 %)” value in assay [2] (days +1 to +5) stood at 497%. Also, the “Zahl der IgM-PBZ im Vergleich zur Kontrolle (100 %)” value in assay [2] (days -1 to +3, average value) is 352%. Also, the “Senkung des Virusertrages im Vergleich zur unbehandelten Kontrolle” value is given as 0,33 log10 TCID50/0,2 ml in assay [3] (125 µmol/l, mean of three experiments) and 1,0 log10 TCID50/0,2 ml in assay [3] (setting [6]). The “% Hemmung” value in assay [3] (125 µmol/l, n.s. = nicht signifikant) is listed as “n. s”; in assay [3] (setting [6]), 99%.
Consider `COc1cc2[nH]c(=O)n(CCCS)c(=O)c2cc1OC` [Beispiel 2, 3-(3-Mercaptoprop-1-yl)-6,7-dimethoxychinazolin-2,4(1H,3H)-dion], for which the “% Hemmung” value is 99,0% in assay [5] (Beispielreihe 5a, 125 µmol/l); 99,99% in assay [5] (Beispielreihe 5a, 250 µmol/l); “n. s” in assay [5] (Beispielreihe 5a, 62,5 µmol/l, n. s. = nicht signifikant). Moreover, the “Senkung des Virusertrages im Vergleich zur unbehandelten Kontrolle” value is 2,0 log10 TCID50/0,2 ml in assay [5] (Beispielreihe 5a, 125 µmol/l); 6,17 log10 TCID50/0,2 ml in assay [5] (Beispielreihe 5a, 250 µmol/l); 0 log10 TCID50/0,2 ml in assay [5] (Beispielreihe 5a, 31,25 µmol/l); 0,5 log10 TCID50/0,2 ml in assay [5] (Beispielreihe 5a, 62,5 µmol/l).

These data come from patent EP0454060B1, “3-(Mercaptoalkyl)-quinazoline-2,4(1H,3H)-diones, processes for their preparation, and pharmaceutical compositions” (priority 1990, dated 1991).
